Tests used:
[1] = system: E. coli S30 extract (bacterial protein synthesis); assay: E. coli S30 extract coupled transcription-translation luciferase assay (inhibition of bacterial protein synthesis); assay type: biochemical; conditions: class by IC50 or % inhibition @ 1 μM, read-out: S30 IC50 (μM/% inhib.)
Procedure, shortened: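 Luminescent read-out of luciferase made from pBESTluc DNA by E. coli S30 extract after 1 h at 37 °C with compound in an 8-point 2-fold series. Background came from no-DNA reactions. Percent inhibition was calculated against water-only controls.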

[2] = molecular target: Rabbit Reticulocyte Lysate (eukaryotic protein synthesis); assay: Rabbit reticulocyte lysate luciferase assay (inhibition of eukaryotic protein synthesis); assay type: biochemical; conditions: class by IC50 or % inhibition @ 1 μM, read-out: Rabbit reticulocyte IC50 (μM/% inhib.)
Procedure, shortened: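 Compounds were tested in 8-point 2-fold dilution series for blocking luciferase synthesis in nuclease-treated rabbit reticulocyte lysate (30° C., 90 minutes). Luminescence read-out, corrected by no-RNA background, was expressed as % inhibition against water-only reactions.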

[3] = system: A. baumannii (Ab); assay: Broth microdilution minimum inhibitory concentration (MIC); assay type: cell-based; conditions: Acinetobacter baumannii; A. baumannii; growth medium supplemented with sodium bicarbonate; read-out: Ab + bicarb MIC
Procedure, shortened: (§1)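 Two-fold compound series, 8 points in triplicate; medium CAMHB ± NaHCO3 (6.25 or 25 mM final) or ± 0–50% heat-inactivated human serum; inoculum 5×10^4 CFU/well; growth-method 0.5 McFarland suspensions; modified CLSI M07-A9.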

[4] = system: E. coli (Ec); assay: as above; assay type: cell-based; conditions: Escherichia coli, E. coli; growth medium supplemented with sodium bicarbonate; read-out: E. coli + bicarb MIC
Procedure, shortened: as §1

[5] = system: E. faecalis (Ef); assay: as above; assay type: cell-based; conditions: Enterococcus faecalis, E. faecalis; growth medium supplemented with sodium bicarbonate; read-out: Ef + bicarb MIC
Procedure, shortened: as §1

[6] = system: P. aeruginosa (Pa); assay: as above; assay type: cell-based; conditions: Pseudomonas aeruginosa, P. aeruginosa; growth medium supplemented with sodium bicarbonate; read-out: Pa MIC + bicarb
Procedure, shortened: as §1

[7] = system: S. aureus (Sa); assay: as above; assay type: cell-based; conditions: Staphylococcus aureus, S. aureus; growth medium supplemented with sodium bicarbonate; read-out: Sa + bicarb MIC
Procedure, shortened: as §1

| Structure (SMILES) | IC50 [1] [µM] | IC50 [2] [µM] | MIC [3] [µg/mL] | MIC [4] [µg/mL] | MIC [5] [µg/mL] | MIC [6] [µg/mL] | MIC [7] [µg/mL] |
| --- | --- | --- | --- | --- | --- | --- | --- |
| C[C@@H]1CN(C(=O)C(C)(C)N)CCN1C(=O)Nc1ccn(-c2ccc(CCN3CCCC(N)CC3)cc2)c(=O)n1 (some centres unmarked) [Compound 90] | < 0.5 | > 1 | < 8 | < 8 | < 8 | > 32 | < 8 |
| CC(N)C1CCN(Cc2ccc(-n3ccc(NC(=O)N4CCN(C(=O)C(C)(C)N)CC4)nc3=O)cn2)CC1 (centres unmarked) [Compound 95] | < 0.5 | > 1 | > 32 | < 8 | > 32 | > 32 | 8 to 32 |
| CCC(N)C1CCCN(Cc2ccc(-n3ccc(NC(=O)N4CCN(C(=O)C(C)(C)N)CC4)nc3=O)cc2)C1 (centres unmarked) [Compound 110] | < 0.5 | > 1 | > 32 | < 8 | 8 to 32 | > 32 | < 8 |
| CN(Cc1ccc(-n2ccc(NC(=O)N3CCN(C(=O)C(C)(C)N)CC3)nc2=O)cc1)CC1CNC1 [Compound 111] | 0.5 to 1 | > 1 | > 32 | 8 to 32 | > 32 | > 32 | 8 to 32 |
| CC(C)(N)C(=O)N1CCN(C(=O)Nc2ccn(-c3ccc(CNCC4CNC4)cc3)c(=O)n2)CC1 [Compound 112] | < 0.5 | > 1 | > 32 | 8 to 32 | > 32 | > 32 | 8 to 32 |
| CC(C)(N)C(=O)N1CCN(C(=O)Nc2ccn(-c3ccc(CN[C@@H]4CC[C@H](N)C4)cc3)c(=O)n2)CC1 [Compound 114] | < 0.5 | > 1 | > 32 | < 8 | > 32 | > 32 | > 32 |
| CN(Cc1ccc(-n2ccc(NC(=O)N3CCN(C(=O)C(C)(C)N)CC3)nc2=O)cc1)[C@@H]1CC[C@H](N)C1 [Compound 115] | < 0.5 | > 1 | > 32 | < 8 | 8 to 32 | > 32 | < 8 |
| CCN(Cc1ccc(-n2ccc(NC(=O)N3CCN(C(=O)C(C)(C)N)CC3)nc2=O)cc1)[C@@H]1CC[C@H](N)C1 [Compound 116] | < 0.5 | > 1 | > 32 | < 8 | 8 to 32 | > 32 | 8 to 32 |
| CC(C)(N)C(=O)N1CCN(C(=O)Nc2ccn(-c3ccc(CN[C@H]4CC[C@H](N)CC4)cc3)c(=O)n2)CC1 [Compound 117] | < 0.5 | > 1 | > 32 | < 8 | < 8 | > 32 | < 8 |
| CN(Cc1ccc(-n2ccc(NC(=O)N3CCN(C(=O)C(C)(C)N)CC3)nc2=O)cc1)[C@H]1CC[C@H](N)CC1 [Compound 118] | < 0.5 | > 1 | 8 to 32 | < 8 | < 8 | 8 to 32 | < 8 |
| CCN(Cc1ccc(-n2ccc(NC(=O)N3CCN(C(=O)C(C)(C)N)CC3)nc2=O)cc1)[C@H]1CC[C@H](N)CC1 [Compound 119] | < 0.5 | > 1 | < 8 | < 8 | < 8 | < 8 | < 8 |
| CC(C)(N)C(=O)N1CCN(C(=O)Nc2ccn(-c3ccc(CN[C@H]4CC[C@@H](N)CC4)cc3)c(=O)n2)CC1 [Compound 120] | < 0.5 | > 1 | > 32 | < 8 | 8 to 32 | > 32 | < 8 |
| CN(Cc1ccc(-n2ccc(NC(=O)N3CCN(C(=O)C(C)(C)N)CC3)nc2=O)cc1)[C@H]1CC[C@@H](N)CC1 [Compound 121] | < 0.5 | > 1 | > 32 | < 8 | < 8 | > 32 | < 8 |
| CCN(Cc1ccc(-n2ccc(NC(=O)N3CCN(C(=O)C(C)(C)N)CC3)nc2=O)cc1)[C@H]1CC[C@@H](N)CC1 [Compound 122] | < 0.5 | > 1 | > 32 | < 8 | < 8 | > 32 | < 8 |

— patent US12503452B2 (Curza Global, LLC, priority 2019, dated 2025)
